Values joined by “and” are separate entries in the source; they are usually repeats but may differ in a detail not shown here. Equal values may be shown once.
Target: T1, HIV-1 protease (Human immunodeficiency virus type 1 group M subtype B, UniProt P04585)
T1 construct: The protease (or proteinase), consisting of only 99 amino acids, is among the smallest enzymes known
Assay: In vitro HIV protease inhibitory assay (HIV Protease FITC Assay)
Assay type: biochemical
Conditions: for Ki: read-out: HIV-1 FITC Ki
In short: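 Biotin/FITC-labelled peptide substrate cleaved by HIV-1 protease for 1 h at room temperature in the dark, in 0.1 M sodium acetate pH 5.5, 1.0 M NaCl, 0.05% NP-40. Uncleaved substrate captured on avidin beads and separated by filtration; fluorescence gave % inhibition.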

[1] = HIV-1 Dose 10.000 uM, read-out: HIV-1 Protease % Inhib
[2] = HIV-1 Dose 1.000 uM, read-out: HIV-1 Protease % Inhib
[3] = HIV-1 Dose 100.000 uM, read-out: HIV-1 Protease % Inhib

SMILES | inhibition at 10 µM [1] | inhibition at 1 µM [2] | inhibition at 100 µM [3] | also measured
O=c1oc(C(CC2CC2)CC2CC2)cc(O)c1C(Cc1ccccc1)Cc1ccccc1 [Example 79, 3-(1-Benzyl-2-phenyl-ethyl)-6-(2-cyclopropyl-1-cyclopropylmethyl-ethyl)-4-hydroxy-pyran-2-one] | 122% |  |  | inhibition at 0.123 µM (HIV-1 Dose 0.123 uM, read-out: HIV-1 Protease % Inhib): 39.9%; inhibition at 0.37 µM (HIV-1 Dose 0.370 uM, read-out: HIV-1 Protease % Inhib): 76.7%; inhibition at 1.1 µM (HIV-1 Dose 1.100 uM, read-out: HIV-1 Protease % Inhib): 106%; inhibition at 3.3 µM (HIV-1 Dose 3.300 uM, read-out: HIV-1 Protease % Inhib): 111%; inhibition at 30 µM (HIV-1 Dose 30.000 uM, read-out: HIV-1 Protease % Inhib): 117%; Ki: 33 nM
CC(C)CC(CC(C)C)c1cc(O)c(C(c2ccccc2)C2CC2)c(=O)o1 (centres unmarked) [Example 80, 3-(Cyclopropyl-phenyl-methyl)-4-hydroxy-6-(1-isobutyl-3-methyl-butyl)-pyran-2-one] | 78.9% | 50.5% | 102% | 
O=c1oc(C(CC2CC2)CC2CC2)cc(O)c1C(c1ccccc1)C1CC1 (centres unmarked) [Example 81] |  |  |  | HIV-1 Protease % Inhib (HIV-1 Dose 1.000 uM): 41.76%; HIV-1 Protease % Inhib (HIV-1 Dose 10.000 uM): 76.98%; HIV-1 Protease % Inhib (HIV-1 Dose 100.000 uM): 83.48% and 83.5%; HIV-1 Protease % Inhib (dose not given): <10%; Ki: 31 nM
O=c1oc(CCc2ccccc2)cc(O)c1C(C1CC1)C1CC1 [Example 82, 3-Dicyclopropylmethyl-4-hydroxy-6-phenethyl-pyran-2-one] | 90.9% | 19.8% | 106% | 
CC(c1cc(O)c(C(C2CC2)C2CC2)c(=O)o1)C1CC1 (centres unmarked) [Example 83, 6-(1-Cyclopropyl-ethyl)-3-dicyclopropylmethyl-4-hydroxy-pyran-2-one] | 72% | 10.5% | 93.5% | 
CC(CC1CC1)(c1cc(O)c(C(C2CC2)C2CC2)c(=O)o1)C1CC1 (centres unmarked) [Example 84, 6-(1-Cyclopropyl-1-cyclopropylmethyl-ethyl)-3-dicyclopropylmethyl-4-hydroxy-pyran-2-one] | 91% | 54.8% |  | HIV-1 Protease % Inhib (HIV-1 Dose 100.000 uM): 120.09% and 100%
CCC(CC1CCCCC1)c1cc(O)c(C(c2ccccc2)C2CC2)c(=O)o1 (centres unmarked) [Example 85, 6-(1-Cyclohexylmethyl-propyl)-3-(cyclopropyl-phenyl-methyl)-4-hydroxy-pyran-2-one] | 77% | 11.6% | 92.1% | 
CCC(c1ccccc1)c1c(O)cc(C(CC2CC2)CC2CC2)oc1=O (centres unmarked) [Example 87, 6-(2-Cyclopropyl-1-cyclopropylmethyl-ethyl)-4-hydroxy-3(1-phenyl-propyl)-pyran-2-one] | 83.8% | 17.8% | 90.2% | 
O=c1oc(C(Cc2ccccc2)CC2CC2)cc(O)c1C(c1ccccc1)C1CC1 (centres unmarked) [Example 88, 6-(1-Benzyl-2-cyclopropyl-ethyl)-3-(cyclopropyl-phenyl-methyl)-4-hydroxy-pyran-2-one] | 60.8% | 46.2% | 95.1% | 
O=c1oc(CCC2CC2)cc(O)c1C(c1ccccc1)C1CC1 (centres unmarked) [Example 89, 6-(2-Cyclopropyl-ethyl)-3-(cyclopropyl-phenyl-methyl)-4-hydroxy-pyran-2-one] | 70% | < 10% | 84% | HIV-1 Protease % Inhib (dose not given): <10%
CCC(CC1CC1)c1cc(O)c(C(c2ccccc2)C2CC2)c(=O)o1 (centres unmarked) [Example 90, 6-(1-Cyclopropylmethyl-propyl)-3-(cyclopropyl-phenyl-methyl)-4-hydroxy-pyran-2-one] | 95.1% | 61.2% | 95.9% | HIV-1 Protease % Inhib (HIV-1 Dose 100.000 uM): 96%
O=c1oc(CCCCc2ccccc2)cc(O)c1C(c1ccccc1)C1CC1 (centres unmarked) [Example 91, 3-(Cyclopropyl-phenyl-methyl)-4-hydroxy-6-(4-phenyl-butyl)-pyran-2-one] | 27.8% | < 10% | 62% | 
O=c1oc(C(CC2CC2)CC2CC2)cc(O)c1C(C1CCCCC1)C1CC1 (centres unmarked) [Example 92, 3-(Cyclohexyl-cyclopropyl-methyl)-6-(2-cyclopropyl-1-cyclopropylmethyl-ethyl)-4-hydroxy-pyran-2-one] | 80.9% | 38.3% | 87.1% | 
